In brackets after ≈: the same amount, converted by molar mass. Like-named read-outs stand apart in the source and are kept apart here.
Columns and labels:
[1] = system: Staphylococcus aureus CCM 4516/08; experiment: Antibacterial microdilution broth, SA; assay type: cell-based; conditions: Staphylococcus aureus
Trichosporon asahii 1188 = experiment: Antifungal microdilution broth, TA; assay type: cell-based; conditions: read-out: MIC TA
[2] = system: M. kansasii CNCTC My 235/80 (ATCC 12478); experiment: Antimycobacterial microdilution MABA, M. kansasii; assay type: cell-based, Mycobacterium kansasii; conditions: for M. kans. ATCC 12478 MIC: Middlebrook 7H9 with OADC, pH 6.6, MABA; for MIC: Mycobacterium kansasii, ATCC12478, pH 6.6, read-out: M. kans. ATCC 12478 MIC, Middlebrook 7H9 with OADC, pH 6.6, MABA
[3] = system: Candida albicans ATCC 44859; experiment: Antifungal microdilution broth, CA; assay type: cell-based; conditions: Candida albicans, read-out: MIC CA
[4] = system: Escherichia coli CCM 4517; experiment: Antibacterial microdilution broth, EC; assay type: cell-based; conditions: Escherichia coli, read-out: MIC EC
[5] = system: Pseudomonas aeruginosa CCM 1961; experiment: Antibacterial microdilution broth, PA; assay type: cell-based; conditions: Pseudomonas aeruginosa, read-out: MIC PA
[6] = system: Lichtheimia corymbifera 272; experiment: Antifungal microdilution broth, LC; assay type: cell-based; conditions: read-out: MIC LC
[7] = system: M. avium ssp. avium CNCTC My 80/72 (ATCC 15769); experiment: Antimycobacterial microdilution MABA, M. avium; assay type: cell-based, Mycobacterium avium; conditions: for M. avium ATCC 15769 MIC: Middlebrook 7H9 with OADC, pH 6.6, MABA; for MIC: Mycobacterium avium, ATCC15769, pH 6.6, read-out: M. avium ATCC 15769 MIC
Candida glabrata 20/I = experiment: Antifungal microdilution broth, CG; assay type: cell-based; conditions: Nakaseomyces glabratus, 20/I, read-out: MIC CG
[8] = system: Staphylococcus aureus H 5996/08 methicillin resistant; experiment: microbe, parasite or virus in culture; assay type: cell-based; conditions: Staphylococcus aureus, MRSA, read-out: MIC MRSA
[9] = system: Enterococcus sp. J 14365/08; experiment: Antibacterial microdilution broth, EF; assay type: cell-based; conditions: Enterococcus, read-out: MIC EF
Candida krusei E28 = experiment: Antifungal microdilution broth, CK; assay type: cell-based; conditions: Pichia kudriavzevii, read-out: MIC CK
Candida tropicalis 156 = experiment: Antifungal microdilution broth, CT; assay type: cell-based; conditions: read-out: MIC CT
[10] = system: Mycobacterium smegmatis CCM 4622 (ATCC 607); experiment: Antimycobacterial microdilution, M. smegmatis; assay type: cell-based; conditions: Mycolicibacterium smegmatis, read-out: M. smeg. ATCC 607 MIC
[11] = system: Mycobacterium tuberculosis H37Rv CNCTC My 331/88 (ATCC 27294); experiment: Antimycobacterial microdilution MABA, M. tuberculosis; assay type: cell-based; conditions: for MIC: Mycobacterium tuberculosis, read-out: Mtb H37Rv ATCC 27294 MIC, Middlebrook 7H9 with OADC growth supplement, pH = 6.6, MABA; for Mtb H37Rv ATCC 27294 MIC: Middlebrook 7H9 with OADC growth supplement, pH = 6.6, MABA
[12] = system: Staphylococcus epidermidis H 6966/08; experiment: Antibacterial microdilution broth, SE; assay type: cell-based; conditions: Staphylococcus epidermidis, read-out: MIC SE
[13] = system: Aspergillus fumigatus 231; experiment: Antifungal microdilution broth, AF; assay type: cell-based; conditions: read-out: MIC AF
[14] = system: Trichophyton interdigitale 445; experiment: Antifungal microdilution broth, TI; assay type: cell-based; conditions: read-out: MIC TI
[15] = CCM4516, 24 h, read-out: MIC SA, 24 h
[16] = CCM4516, 48 h, read-out: MIC SA, 48 h
[17] = Trichosporon asahii, 1188, 24 h
[18] = Trichosporon asahii, 1188, 48 h
[19] = Lichtheimia corymbifera, 272, 24 h
[20] = Lichtheimia corymbifera, 272, 48 h
[21] = Aspergillus fumigatus, 231, 24 h
[22] = Aspergillus fumigatus, 231, 48 h
[23] = Trichophyton interdigitale, 445, 72 h
[24] = Trichophyton interdigitale, 445, 120 h

| SMILES | MIC [1, 15] [µM] | MIC [1, 16] [µM] | MIC (Trichosporon asahii 1188; [17]) [µM] | MIC (Trichosporon asahii 1188; [18]) [µM] | MIC [2] [µg/mL] | MIC ([3]; ATCC44859, 24 h) [µM] | MIC ([3]; ATCC44859, 48 h) [µM] | MIC ([4]; CCM4517, 24 h) [µM] | MIC ([4]; CCM4517, 48 h) [µM] | MIC ([5]; CCM1961, 72 h) [µM] | MIC ([5]; CCM1961, 120 h) [µM] | MIC [6, 19] [µM] | MIC [6, 20] [µM] | MIC [7] [µg/mL] | melting point [°C] | MIC (Candida glabrata 20/I; 24 h) [µM] | MIC (Candida glabrata 20/I; 48 h) [µM] | MIC ([8]; 24 h) [µM] | MIC ([8]; 48 h) [µM] | MIC ([9]; SP.J14365/08, 24 h) [µM] | other results |
| --- | --- | --- | --- | --- | --- | --- | --- | --- | --- | --- | --- | --- | --- | --- | --- | --- | --- | --- | --- | --- | --- |
| COc1ccc(C(=O)Nc2cnccn2)cc1 [Compound 1g] | > 500 | > 500 | > 500 | > 500 | > 100 | > 500 | > 500 | > 500 | > 500 | > 500 | > 500 | > 500 | > 500 | > 100 | 156 to 156.6 | > 500 | > 500 | > 500 | > 500 | > 500 | M. kans. ATCC 12478 MIC [2]: >100 µg/mL; M. avium ATCC 15769 MIC [7]: >100 µg/mL; MIC ([9]; SP.J14365/08, 48 h): > 500 µM; MIC (Candida krusei E28; E28, 24 h): > 500 µM; MIC (Candida krusei E28; E28, 48 h): > 500 µM; MIC (Candida tropicalis 156; Candida tropicalis, 156, 24 h): > 500 µM; MIC (Candida tropicalis 156; Candida tropicalis, 156, 48 h): > 500 µM; MIC [10]: ≥ 500 µg/mL; MIC [11]: 25 µg/mL (≈ 109 µM); MIC ([12]; H6966/08, 24 h): > 500 µM; MIC ([12]; H6966/08, 48 h): > 500 µM; MIC [13, 21]: > 500 µM; MIC [13, 22]: > 500 µM; MIC [14, 23]: > 500 µM; MIC [14, 24]: > 500 µM |
| Cc1ccc(C(=O)Nc2cnccn2)cc1 [Compound 1h] | > 500 | > 500 | > 500 | > 500 | > 100 | 500 (≈ 107 µg/mL) | 500 (≈ 107 µg/mL) | > 500 | > 500 | 500 (≈ 107 µg/mL) | 500 (≈ 107 µg/mL) | > 500 | > 500 | > 100 | 163.3 to 166 | > 500 | > 500 | > 500 | > 500 | > 500 | MIC ([9]; SP.J14365/08, 48 h): > 500 µM; MIC (Candida krusei E28; E28, 24 h): > 500 µM; MIC (Candida krusei E28; E28, 48 h): > 500 µM; MIC (Candida tropicalis 156; Candida tropicalis, 156, 24 h): > 500 µM; MIC (Candida tropicalis 156; Candida tropicalis, 156, 48 h): > 500 µM; MIC [10]: ≥ 500 µg/mL; Mtb H37Rv ATCC 27294 MIC [11]: >100 µg/mL; MIC [11]: > 100 µg/mL; MIC ([12]; H6966/08, 24 h): 500 µM (≈ 107 µg/mL); MIC ([12]; H6966/08, 48 h): 500 µM (≈ 107 µg/mL); MIC [13, 21]: > 500 µM; MIC [13, 22]: > 500 µM; MIC [14, 23]: > 500 µM; MIC [14, 24]: > 500 µM |
| O=C(Nc1cnccn1)c1ccccc1Cl [Compound 1j] | 250 (≈ 58.4 µg/mL) | 250 (≈ 58.4 µg/mL) | > 500 | > 500 | > 100 | > 500 | > 500 | > 500 | > 500 | 250 (≈ 58.4 µg/mL) | 250 (≈ 58.4 µg/mL) | > 500 | > 500 | > 100 | 128.2 to 129.7 | > 500 | > 500 | > 500 | > 500 | > 500 | M. kans. ATCC 12478 MIC [2]: >100 µg/mL; M. avium ATCC 15769 MIC [7]: >100 µg/mL; MIC ([9]; SP.J14365/08, 48 h): > 500 µM; MIC (Candida krusei E28; E28, 24 h): > 500 µM; MIC (Candida krusei E28; E28, 48 h): > 500 µM; MIC (Candida tropicalis 156; Candida tropicalis, 156, 24 h): > 500 µM; MIC (Candida tropicalis 156; Candida tropicalis, 156, 48 h): > 500 µM; MIC [10]: 250 µg/mL (≈ 1070 µM); Mtb H37Rv ATCC 27294 MIC [11]: >100 µg/mL; MIC [11]: > 100 µg/mL; MIC ([12]; H6966/08, 24 h): 500 µM (≈ 117 µg/mL); MIC ([12]; H6966/08, 48 h): 500 µM (≈ 117 µg/mL); MIC [13, 21]: > 500 µM; MIC [13, 22]: > 500 µM; MIC [14, 23]: > 500 µM; MIC [14, 24]: > 500 µM |
